# Measurements published in patent US10597388B2, “Pyridazinone herbicides” (FMC CORPORATION, priority 2014, dated 2020).
# How the values were obtained:
# Experiment in all cases: Test D controlled growth environment herbicide test, pre- and postemergence
# Format in all cases: in vivo
# [1] = tested on: blackgrass (Alopecurus myosuroides)
# Outline: (§1)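 Pre-emergence: seeds sown in silt loam soil were sprayed with compound in a non-phytotoxic solvent mix containing surfactant. Post-emergence: plants at 2 to 18 cm (1- to 4-leaf stage) in peat moss/vermiculite medium got the same formulation. Visual 0–100 rating versus controls after 14 to 21 d.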
# [2] = tested on: ryegrass, Italian (Italian ryegrass, Lolium multiflorum)
# Outline: as §1
# [3] = tested on: speedwell (bird's-eye speedwell, Veronica persica)
# Outline: as §1
# [4] = tested on: canarygrass (Phalaris minor)
# Outline: as §1
# [5] = tested on: lambsquarters (Chenopodium album)
# Outline: as §1
# [6] = tested on: chickweed (common chickweed, Stellaria media)
# Outline: as §1
# [7] = tested on: bromegrass, downy (downy bromegrass, Bromus tectorum)
# Outline: as §1
# [8] = tested on: field poppy (Papaver rhoeas)
# Outline: as §1
# [9] = tested on: chamomile (scentless chamomile, Matricaria inodora)
# Outline: as §1
# [10] = tested on: oilseed rape (Brassica napus)
# Outline: as §1
# [11] = tested on: buckwheat, wild (wild buckwheat, Polygonum convolvulus)
# Outline: as §1
# [12] = tested on: barley, winter (winter barley, Hordeum vulgare)
# Outline: as §1
# [13] = tested on: galium (catchweed bedstraw, Galium aparine)
# Outline: as §1
# [14] = Postemergence, 31 g ai/ha, scale 0 to 100 (0 no effect, 100 complete control)
# [15] = Postemergence, 125 g ai/ha, visual rating on scale 0 (no effect) to 100 (complete control), 14 to 21 d
# [16] = Postemergence, 250 g ai/ha, scale 0 to 100 (0 no effect, 100 complete control)
# [17] = Preemergence, 62 g ai/ha, scale 0 to 100 (0 no effect, 100 complete control)
# [18] = Preemergence, 125 g ai/ha, scale 0 to 100 (0 no effect, 100 complete control)
# [19] = Preemergence, 250 g ai/ha, scale 0 to 100 (0 no effect, 100 complete control)
# [20] = postemergence, 62 g ai/ha, scale 0 to 100, 0 no effect, 100 complete control
structure (smiles),measurement,setting,value
Cc1ccc2ccc(C)c(-c3c(O)c(C)nn(C)c3=O)c2c1 [Compound 60],Blackgrass plant response rating,[1]; [14],75
same,"Plant response rating, Blackgrass",[1]; [15],85
same,"Plant response rating, Blackgrass",[1]; [16],90
same,"Plant response rating (scale of 0 to 100), Blackgrass","[1]; Preemergence, 31 g ai/ha",90
same,"Plant response rating, Blackgrass",[1]; [17],95
same,"Plant response rating, Blackgrass",[1]; [18],100
same,"Plant response rating, Blackgrass",[1]; [19],100
same,"Plant response rating, Blackgrass",[1]; [20],80
same,"Ryegrass, Italian plant response rating",[2]; [14],80
same,"Plant response rating, Ryegrass, Italian",[2]; [15],90
same,"Plant response rating, Ryegrass, Italian",[2]; [16],95
same,"Plant response rating (scale of 0 to 100), Ryegrass, Italian","[2]; Preemergence, 31 g ai/ha",100
same,"Plant response rating, Ryegrass, Italian",[2]; [17],100
same,"Plant response rating, Ryegrass, Italian",[2]; [18],100
same,"Plant response rating, Ryegrass, Italian",[2]; [19],100
same,"Plant response rating, Ryegrass, Italian",[2]; [20],90
same,Speedwell plant response rating,[3]; [14],85
same,"Plant response rating, Speedwell",[3]; [15],90
same,"Plant response rating, Speedwell",[3]; [16],100
same,"Plant response rating (scale of 0 to 100), Speedwell","[3]; Preemergence, 31 g ai/ha",100
same,"Plant response rating, Speedwell",[3]; [17],100
same,"Plant response rating, Speedwell",[3]; [18],100
same,"Plant response rating, Speedwell",[3]; [19],100
same,"Plant response rating, Speedwell",[3]; [20],80
same,Canarygrass plant response rating,[4]; [14],80
same,"Plant response rating, Canarygrass",[4]; [15],85
same,"Plant response rating, Canarygrass",[4]; [16],90
same,"Plant response rating (scale of 0 to 100), Canarygrass","[4]; Preemergence, 31 g ai/ha",90
same,"Plant response rating, Canarygrass",[4]; [17],95
same,"Plant response rating, Canarygrass",[4]; [18],95
same,"Plant response rating, Canarygrass",[4]; [19],100
same,"Plant response rating, Canarygrass",[4]; [20],80
same,Lambsquarters plant response rating,[5]; [14],80
same,"Plant response rating, Lambsquarters",[5]; [15],80
same,"Plant response rating, Lambsquarters",[5]; [16],80
same,"Plant response rating (scale of 0 to 100), Lambsquarters","[5]; Preemergence, 31 g ai/ha",100
same,"Plant response rating, Lambsquarters",[5]; [17],100
same,"Plant response rating, Lambsquarters",[5]; [18],100
same,"Plant response rating, Lambsquarters",[5]; [19],100
same,"Plant response rating, Lambsquarters",[5]; [20],80
same,Chickweed plant response rating,[6]; [14],85
same,"Plant response rating, Chickweed",[6]; [15],100
same,"Plant response rating, Chickweed",[6]; [16],100
same,"Plant response rating (scale of 0 to 100), Chickweed","[6]; Preemergence, 31 g ai/ha",95
same,"Plant response rating, Chickweed",[6]; [17],100
same,"Plant response rating, Chickweed",[6]; [18],100
same,"Plant response rating, Chickweed",[6]; [19],100
same,"Plant response rating, Chickweed",[6]; [20],100
same,"Bromegrass, Downy plant response rating",[7]; [14],30
same,"Plant response rating, Bromegrass, Downy",[7]; [15],65
same,"Plant response rating, Bromegrass, Downy",[7]; [16],80
same,"Plant response rating (scale of 0 to 100), Bromegrass, Downy","[7]; Preemergence, 31 g ai/ha",60
same,"Plant response rating, Bromegrass, Downy",[7]; [17],90
same,"Plant response rating, Bromegrass, Downy",[7]; [18],95
same,"Plant response rating, Bromegrass, Downy",[7]; [19],98
same,"Plant response rating, Bromegrass, Downy",[7]; [20],55
same,Field Poppy plant response rating,[8]; [14],60
same,"Plant response rating, Field Poppy",[8]; [15],85
same,"Plant response rating, Field Poppy",[8]; [16],100
same,"Plant response rating (scale of 0 to 100), Field Poppy","[8]; Preemergence, 31 g ai/ha",75
same,"Plant response rating, Field Poppy",[8]; [17],100
same,"Plant response rating, Field Poppy",[8]; [18],100
same,"Plant response rating, Field Poppy",[8]; [19],100
same,"Plant response rating, Field Poppy",[8]; [20],75
same,Chamomile plant response rating,[9]; [14],75
same,"Plant response rating, Chamomile",[9]; [15],100
same,"Plant response rating, Chamomile",[9]; [16],100
same,"Plant response rating (scale of 0 to 100), Chamomile","[9]; Preemergence, 31 g ai/ha",95
same,"Plant response rating, Chamomile",[9]; [17],100
same,"Plant response rating, Chamomile",[9]; [18],100
same,"Plant response rating, Chamomile",[9]; [19],100
same,"Plant response rating, Chamomile",[9]; [20],80
same,Oilseed Rape plant response rating,[10]; [14],65
same,"Plant response rating, Oilseed Rape",[10]; [15],75
same,"Plant response rating, Oilseed Rape",[10]; [16],80
same,"Plant response rating (scale of 0 to 100), Oilseed Rape","[10]; Preemergence, 31 g ai/ha",0
same,"Plant response rating, Oilseed Rape",[10]; [17],15
same,"Plant response rating, Oilseed Rape",[10]; [18],40
same,"Plant response rating, Oilseed Rape",[10]; [19],80
same,"Plant response rating, Oilseed Rape",[10]; [20],70
same,"Buckwheat, Wild plant response rating",[11]; [14],90
same,"Plant response rating, Buckwheat, Wild",[11]; [15],100
same,"Plant response rating, Buckwheat, Wild",[11]; [16],100
same,"Plant response rating (scale of 0 to 100), Buckwheat, Wild","[11]; Preemergence, 31 g ai/ha",0
same,"Plant response rating, Buckwheat, Wild",[11]; [17],25
same,"Plant response rating, Buckwheat, Wild",[11]; [18],50
same,"Plant response rating, Buckwheat, Wild",[11]; [19],60
same,"Plant response rating, Buckwheat, Wild",[11]; [20],95
same,"Barley, Winter plant response rating",[12]; [14],10
same,"Plant response rating, Barley, Winter",[12]; [15],40
same,"Plant response rating, Barley, Winter",[12]; [16],50
same,"Plant response rating (scale of 0 to 100), Barley, Winter","[12]; Preemergence, 31 g ai/ha",15
same,"Plant response rating, Barley, Winter",[12]; [17],30
same,"Plant response rating, Barley, Winter",[12]; [18],50
same,"Plant response rating, Barley, Winter",[12]; [19],65
same,"Plant response rating, Barley, Winter",[12]; [20],25
same,Galium plant response rating,[13]; [14],100
same,"Plant response rating, Galium",[13]; [15],100
same,"Plant response rating, Galium",[13]; [16],100
same,"Plant response rating (scale of 0 to 100), Galium","[13]; Preemergence, 31 g ai/ha",75
same,"Plant response rating, Galium",[13]; [17],85
same,"Plant response rating, Galium",[13]; [18],95
same,"Plant response rating, Galium",[13]; [19],100
same,"Plant response rating, Galium",[13]; [20],100
